≈ marks a conversion by molar mass, not a printed value. Read-outs that look alike come from different tables or passages of the source.
Tests used:
[1] = Kinetic solubility test in water and bio-relevant media (SGF, FaSSIF, FeSSIF); type: physicochemical; conditions: for solubility at 1 h: 37 °C, thermodynamic from solid, read-out: S: solubility; for solubility at 1 h / S: solubility: 37° C.; for Purity (%), area percentage of API: for reference only (suspensions); for FC: form change: residual solids by XRPD; for pH: supernatant
Experimental: Weigh 100 mg of sodium chloride and 50 mg of Triton X-100 into a 50-mL volumetric flask. Add appropriate volume of purified water and sonicate until all solids are completely dissolved. Add about 68 μL of 12 M HCl and sufficient purified water closely to the target volume and adjust to pH 1.8. Dilute to volume with purified water, mix well and check the pH with a pH meter.
Weigh 170 mg of sodium phosphate monobasic, 21 mg of sodium hydroxide and 310 mg of sodium chloride, 110 mg of SIF powder into a 50-mL volumetric flask. Add appropriate volume of purified water and sonicate until all solids are completely dissolved. Add sufficient purified water closely to the target volume and adjust to pH 6.5. Dilute to volume with purified water, mix well and check the pH with a pH meter.
Weigh 0.41 mL of glacial acetic acid, 202 mg of sodium hydroxide and 594 mg of sodium chloride, 560 mg of SIF powder into a 50-mL volumetric flask. Add appropriate volume of purified water to dissolve the solids. Then add sufficient purified water closely to the target volume and adjust to pH 5.0. Dilute to volume with purified water, mix well and check the pH with a pH meter.
Kinetic solubility was evaluated in water and three bio-relevant media (SGF, FaSSIF and FeSSIF) for 1/4/24 hours. 3-4 mg of solids were suspended in 3 mL each medium (solid loading: 1 mg/mL, calculated using freeform) to get a suspension, followed by rolling (25 rpm) at 37° C. for 1/4/24 hours. At each time point, ˜1.0 mL of suspension was sampled out for centrifugation (12000 rpm, 2 min) and filtration through 0.45 μm PTFE membrane to obtain supernatant for HPLC and pH tests, the residual solids were analyzed by XRPD.
Kinetic solubility was evaluated for 1:1 Compound II Citrate Salt (Form A), 1:1 Compound II Tris Salt (Form B), and freeform of Compound II in water and three bio-relevant media (SGF, FaSSIF and FeSSIF) for 1/4/24 hours. 3-4 mg of solids were suspended in 3 mL each medium (solid loading:
1 mg/mL, calculated using freeform) to get a suspension, followed by rolling (25 rpm) at 37° C. for 1/4/24 hours. At each time point, ˜1.0 mL of suspension was sampled out for centrifugation (12000 rpm, 2 min) and filtration through 0.45 μm PTFE membrane to obtain supernatant for HPLC and pH tests, the residual solids were analyzed by XRPD. […] The purity results were for reference only since the samples were all suspensions.

[2] = Solid stability evaluation (I/II), XRPD and HPLC; type: physicochemical; conditions: for Purity (area %): listed as Amorphous Free form
Experimental: To evaluate the physical and chemical stability of 1:1 Compound I Tris Salt (Form A) and amorphous free form, samples were stored under the conditions of 60° C. for 1 day and 25° C./60% RH or 40° C./75% RH for 1 week, respectively.
To evaluate the physical and chemical stability of 1:1 Compound II Citrate Salt (Form A), 1:1 Compound II Tris Salt (Form B) and freeform, samples were stored under the conditions of 60° C. for 1 day and 25° C./60% RH or 40° C./75% RH for 1 week, respectively.

[3] = FaSSIF, 4 hours, listed as Free form amorphous
[4] = FaSSIF, 24 hours, listed as Free form amorphous
[5] = FeSSIF, 1 hour, listed as Free form amorphous
[6] = FeSSIF, 4 hours, listed as Free form amorphous
[7] = FeSSIF, 24 hours, listed as Free form amorphous
[8] = H2O, 1 hour, listed as Free form amorphous
[9] = H2O, 4 hours, listed as Free form amorphous
[10] = H2O, 24 hours, listed as Free form amorphous
[11] = SGF, 1 hour, listed as Free form amorphous
[12] = SGF, 4 hours, listed as Free form amorphous
[13] = SGF, 24 hours, listed as Free form amorphous

O=C(O)c1ccc2nc(CN3CC=C(c4cccc(OCc5ccc(Cl)cc5F)c4)CC3)n(C[C@@H]3CCO3)c2c1 [Compound I, (S)-2-((4-(3-((4-chloro-2-fluorobenzyl)-oxy)phenyl)-3,6-dihydropyridin-1(2H)-yl)methyl)-1-(oxetan-2-ylmethyl)-1H-benzo[d]-imidazole-6-carboxylic acid]
solubility at 1 h ([1]; FaSSIF, pH 6.5, fassif, FaSSIF, 1 hour): 200 µg/mL (≈ 356 µM)
Purity (%), area percentage of API ([1]; FaSSIF, 1 hour, listed as Free form amorphous): 93.54%
S: solubility [1, 3]: 80 µg/mL
Purity (%), area percentage of API ([1]; FaSSIF, 4 hours): 49.59%
S: solubility [1, 4]: 40 µg/mL
Purity (%), area percentage of API [1, 4]: 63.24%
solubility at 1 h ([1]; FeSSIF, pH 5, fessif, FeSSIF, 1 hour): 400 µg/mL (≈ 712 µM)
Purity (%), area percentage of API [1, 5]: 94.78%
S: solubility [1, 6]: 500 µg/mL
Purity (%), area percentage of API [1, 6]: 91.80%
S: solubility [1, 7]: 400 µg/mL
Purity (%), area percentage of API [1, 7]: 77.57%
S: solubility [1, 8]: 30 µg/mL
Purity (%), area percentage of API [1, 8]: 100.00%
S: solubility [1, 9]: 20 µg/mL
Purity (%), area percentage of API [1, 9]: 87.13%
S: solubility [1, 10]: <LOQ
Purity (%), area percentage of API [1, 10]: 9.97%
S: solubility ([1]; SGF, 1 hour): 400 µg/mL
Purity (%), area percentage of API [1, 11]: 93.07%
S: solubility [1, 12]: 600 µg/mL
Purity (%), area percentage of API [1, 12]: 94.02%
S: solubility [1, 13]: 800 µg/mL
Purity (%), area percentage of API [1, 13]: 91.48%
FC: form change ([1]; FaSSIF, 1 hour): No
FC: form change ([1]; FaSSIF, 4 hours): No
FC: form change [1, 4]: Yes
FC: form change ([1]; FeSSIF, 1 hour): No
FC: form change ([1]; FeSSIF, 4 hours): No
FC: form change ([1]; FeSSIF, 24 hours): No
FC: form change ([1]; H2O, 1 hour): No
FC: form change ([1]; H2O, 4 hours): No
FC: form change ([1]; H2O, 24 hours): No
FC: form change [1, 11]: No
FC: form change [1, 12]: No
FC: form change [1, 13]: No
pH ([1]; FaSSIF, 1 hour): 6.5
pH [1, 3]: 6.5
pH [1, 4]: 6.4
pH [1, 5]: 5.0
pH ([1]; FeSSIF, 4 hours): 5.0
pH ([1]; FeSSIF, 24 hours): 5.0
pH [1, 8]: 8.4
pH [1, 9]: 7.3
pH [1, 10]: 6.8
pH [1, 12]: 1.9
Form change ([2]; 25° C./60% RH (open), 1 week): No
Observation ([2]; 25° C./60% RH (open), 1 week): Yellowish
Purity (area %) ([2]; 25° C./60% RH (open), 1 week): 93.06 area %
Purity (area %) ([2]; 40° C./75% RH (open), 1 week): 89.59 area %
Form change ([2]; 60° C. (capped), 1 day): No
Observation ([2]; 60° C. (capped), 1 day): Yellowish
Purity (area %) ([2]; 60° C. (capped), 1 day): 86.88 area %
Form change ([2]; Initial): No
Observation ([2]; Initial): White powder
Purity (area %) ([2]; Initial): 94.71 area %
